Reference: US9868728B2, “Quinazoline derivatives, compositions, and uses related thereto” (Emory University, priority 2010, dated 2018)

Molecular target: T1, NOX2 (Homo sapiens, UniProt P04839)
T1 construct: isolated plasma membranes from human neutrophils as a source for Nox2-p22phox; from tissue; host or cells: Plasma membranes of human neutrophils (Nox2-p22phox); cytosolic factors recombinant from E. coli
T1 sequence (P04839 2-570 limits assumed): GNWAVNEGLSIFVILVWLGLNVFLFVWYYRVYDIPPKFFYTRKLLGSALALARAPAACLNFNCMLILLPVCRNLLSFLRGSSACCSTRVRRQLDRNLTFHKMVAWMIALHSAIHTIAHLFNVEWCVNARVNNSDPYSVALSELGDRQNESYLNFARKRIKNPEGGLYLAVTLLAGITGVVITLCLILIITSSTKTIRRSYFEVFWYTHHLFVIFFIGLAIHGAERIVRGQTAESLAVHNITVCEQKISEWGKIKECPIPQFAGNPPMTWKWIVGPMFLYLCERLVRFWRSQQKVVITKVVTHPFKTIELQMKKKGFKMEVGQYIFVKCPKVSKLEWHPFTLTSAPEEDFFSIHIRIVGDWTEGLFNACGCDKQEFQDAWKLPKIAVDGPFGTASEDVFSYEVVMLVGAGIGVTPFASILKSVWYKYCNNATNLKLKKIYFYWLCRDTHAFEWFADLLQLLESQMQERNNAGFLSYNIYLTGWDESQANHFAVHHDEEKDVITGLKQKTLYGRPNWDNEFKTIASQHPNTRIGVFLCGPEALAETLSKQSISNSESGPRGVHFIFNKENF
T1 sequence (P13498 2-195 partner limits assumed): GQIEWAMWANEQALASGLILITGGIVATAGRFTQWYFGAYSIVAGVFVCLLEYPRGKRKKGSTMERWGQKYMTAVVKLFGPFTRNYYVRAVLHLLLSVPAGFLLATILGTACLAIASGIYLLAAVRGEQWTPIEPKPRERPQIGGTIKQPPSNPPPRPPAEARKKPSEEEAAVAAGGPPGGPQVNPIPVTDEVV
Experiment: Nox2 cell-free assay (LO12 luminescence)
Format: biochemical
Settings: Nox2 cell-free system; for IC50: read-out: NOX2 IC50 (concentration giving half-maximal inhibition); for Emax: read-out: % inhibition (maximum inhibition achieved at a very high concentration of the compound)
Description: The following compounds were tested according to the procedures provided in the experimental section. Assays were carried out using the Nox2 cell-free system. The IC50 value is the concentration giving half-maximal inhibition, while the “% inhibition” shown in parentheses is the maximum inhibition achieved at a very high concentration of the compound. 100% refers to complete inhibition within experimental error of the assay.
In certain assays a Cell-Free recombinant NOX-2 system (consisting of isolated plasma membranes from human neutrophils as a source for Nox2-p22phox, supplemented with recombinant p47phox, p67phox and Rac1Q61L (activated Rac), expressed in and isolated from of E. coli. LO12 luminescence was used as a readout to monitor enzymatic activity.
Plasma membranes were prepared from human neutrophils, which express large amounts of Nox2 and stored at −80 C until use. Membranes are mixed with recombinant, purified cytosolic regulatory proteins (p67Np47 chimera, and constitutively active Rac1 mutant Q61) and FAD, along with varying concentrations of compound, and LO12, which luminesces when it reacts with ROSvi. The reaction is started by addition of NADPH and SDS (an artificial stimulus for Nox2). See Curnutte et al., (1987) J. Biol. Chem. 262: 6450-6452.

Structure (SMILES) | IC50 [nM] | Emax (value in parentheses) [%] | further results
CSc1nc2ccccc2c(=O)n1CCC[N+]1(C)CCOCC1 [TG6-103-1] | 1500 | 100 | –
CCn1c(=S)[nH]c2ccc(F)cc2c1=O [TG6-269-1] | 700 | – | –
CC(C)n1c(=S)[nH]c2cc3c(cc2c1=O)OCCO3 [TG6-272] | 700 | – | –
O=C(c1ccc(F)cc1)N1CCN(CCn2c(=S)[nH]c3ccc(Cl)cc3c2=O)CC1 [TG6-173] | 2000 | – | –
CC(C)n1c(=S)[nH]c2cc(F)c(F)cc2c1=O [TG6-284-2] | 700 | – | –
CCCCn1c(SCC(=O)Nc2cc(-c3ccc(C)cc3)no2)nc2ccccc2c1=O [AS153a] | > 10000 | – | –
CN(C)CCCn1c(SCC(=O)Nc2cc(-c3ccc(Cl)cc3)no2)nc2ccccc2c1=O [AS154b] | 8000 | 100 | –
Nn1c(=S)[nH]c2cc(C(=O)O)ccc2c1=O [AS-262] | 6000 | – | –
CN(C)CCCn1c(SCC(=O)Nc2cc(-c3ccc(F)cc3)n[nH]2)nc2ccccc2c1=O [TG6-20] | 4500 | 90 | –
CCOc1cc2c(=O)n(N)c(=S)[nH]c2cc1OC [AS2-001] | 1000 | – | –
CN(C)CCCn1c(SCC(=O)Nc2nc(-c3ccc(Br)cc3)cs2)nc2ccsc2c1=O [AS-256] | 15000 | – | –
CN(C)CCCn1c(SC(=O)N2CCN(C)CC2)nc2ccccc2c1=O [TG6-71] | – | – | NOX2 IC50 (concentration giving half-maximal inhibition): Not active
CCCN(CCC)CCn1c(=S)[nH]c2ccccc2c1=O [TG6-56] | – | – | NOX2 IC50 (concentration giving half-maximal inhibition): Not active
COc1cc2[nH]c(=S)n(O)c(=O)c2cc1OC [AS-271] | 2000 | – | –
CCCn1c(=S)[nH]c2ccc(Cl)cc2c1=O [TG6-280] | 8000 | – | –
COc1ccc(N2CCN(CCn3c(=S)[nH]c4ccc(Cl)cc4c3=O)CC2)cc1 [TG7-20] | 300 | – | –
O=c1c2cc(Cl)ccc2[nH]c(=S)n1CCN1CCCCC1 [TG6-66] | 1500 | 50 | –
Nn1c(=S)[nH]c2cc3c(cc2c1=O)OCCO3 [AS2-014a] | 600 | – | –
CN(C)CCCn1c(=S)[nH]c2cc3c(cc2c1=O)OCCO3 [TG6-290-1] | 800 | – | –
CCc1ccc(NC(=O)CSc2nc3ccccc3c(=O)n2CCCN(C)C)cc1 [TG6-43] | > 10000 | 60 | –
CN(C)CCCn1c(OCC(=O)N2CCCCC2)nc2ccccc2c1=O [TG6-74] | > 20000 | – | –
CC(Sc1nc2ccccc2c(=O)n1CCCN(C)C)C(=O)Nc1nc(-c2cccc(Br)c2)cs1 (centres unmarked) [TG6-73] | > 20000 | 50 | –
CN(C)CCCCn1c(SCC(=O)Nc2nc(-c3cccc(Br)c3)cs2)nc2ccccc2c1=O [AS195] | 3000 | 100 | –

Structure (SMILES) | IC50 [nM] | Emax (value in parentheses) [%] | further results
COc1ccc(N(C)CCCn2c(=S)[nH]c3ccc(F)cc3c2=O)cc1 [TG6-30] | 100 | 50 | –
N#CCCCCSc1nc2ccccc2c(=O)n1CCN1CCCCC1 [TG6-101] | – | – | NOX2 IC50 (concentration giving half-maximal inhibition): Not active
O=c1c2ccccc2[nH]c(=S)n1CCN1CCCC1 [TG6-52] | 2000 | 80 | –
COc1ccc(N(C)CCCn2c(=S)[nH]c3ccc(Cl)cc3c2=O)cc1 [TG7-25] | 200 | – | –
COc1cc2[nH]c(=S)n(CCCO)c(=O)c2cc1OC [AS-270] | 1000 | – | –
CCCN(CCC)CCCn1c(SCC(=O)Nc2nc(-c3cccc(Br)c3)cs2)nc2ccccc2c1=O [AS173b] | > 20000 | 40 | –
CN(C)CCCn1c(SCC(=O)Nc2nc(-c3ccc(Br)cc3)cs2)nc2ccccc2c1=O [AS158a] | 5000 | 100 | –
CN(C)CCCn1c(OCC(=O)N2CCOCC2)nc2ccccc2c1=O [TG6-76] | > 20000 | – | –
O=c1c2cc(Cl)ccc2[nH]c(=S)n1CCCN1CCCCC1 [TG6-243] | 600 | – | –
COc1cc2[nH]c(=S)n(N(C)C)c(=O)c2cc1OC [AS-268] | 2500 | – | –
CN(C)CCCn1c(=S)[nH]c2c(Cl)cc(Cl)cc2c1=O [TG6-65] | – | – | NOX2 IC50 (concentration giving half-maximal inhibition): Not active
CSc1nc2ccc(F)cc2c(=O)n1CCC[N+](C)(C)C [TG6-103-2] | 1000 | 100 | –
O=C(CSc1nc2ccccc2c(=O)n1CCCO)Nc1nc(-c2cc(F)ccc2F)cs1 [Sample T5837596] | > 10000 | 20 | –
O=C(CSc1nc2ccccc2c(=O)n1CCCN1CCOCC1)Nc1nc(-c2cccc(Br)c2)cs1 [TG6-82] | – | – | NOX2 IC50 (concentration giving half-maximal inhibition): Not active
O=C(O)CCCn1c(SCC(=O)Nc2nc(-c3ccccc3)cs2)nc2ccccc2c1=O [AS140] | > 10000 | – | –
CN(C)CCCn1c(SCC(=O)Nc2nc(-c3ccc(Br)cc3)cs2)nc2ccccc2c1=O [TG6-37-2] | 6000 | – | % inhibition (maximum inhibition achieved at a very high concentration of the compound) (value in parentheses): 95%
CCSC1Nc2ccccc2C(=O)N1CCC[N+]1(CC)CCOCC1 (centres unmarked) [TG6-99-2] | 1500 | 99 | –
COc1cc2[nH]c(=S)n(N)c(=O)c2cc1OC [AS-261A, 3-Amino-6,7-dimethoxy-2-thioxo-2,3-dihydroquinazolin-4(1H)-one] | 200 | – | –
COC(=O)c1ccc2c(=O)n(N)c(=S)[nH]c2c1 [AS-261B] | 500 | – | –
CCN(CC)CCCn1c(SCC(=O)Nc2nc(-c3cccc(C(F)(F)F)c3)cs2)nc2ccccc2c1=O [AS165b] | > 10000 | 80 | –
COc1ccc(N(C)CCCNC(=O)c2cc(F)ccc2N)cc1 [TG6-30-2] | 200 | – | –
CN(C)CCCn1c(SCC(=O)Nc2nc(-c3cccc(Br)c3)cs2)nc2ccc(Cl)cc2c1=O [TG6-58] | 5000 | 90 | –
CCN(CC)CCn1c(=S)[nH]c2ccc(Cl)cc2c1=O [TG6-57] | 6000 | 80 | –

Structure (SMILES) | IC50 [nM] | Emax (value in parentheses) [%] | further results
COC(=O)c1ccc2c(=O)n(N(C)C)c(=S)[nH]c2c1 [AS-266] | 6000 | – | –
CN(C)CCCn1c(=S)[nH]c2cc(F)c(F)cc2c1=O [TG6-250] | 400 | – | –
COc1cc2[nH]c(=S)n(CCCCN)c(=O)c2cc1OC [AS-269] | 1000 | – | –
CN(C)CCCn1c(=S)[nH]c2c(c1=O)CCCC2 [AS-259] | 7500 | – | –
CN(C)CCn1c(=S)[nH]c2ccccc2c1=O [TG6-35-2] | 4000 | 50 | –
O=C(CSc1nc2ccccc2c(=O)n1CCN1CCCCC1)Nc1nc(-c2cccc(Br)c2)cs1 [TG6-81] | 1500 | 70 | –
CN(C)CCCn1c(SCC(=O)Nc2nc(-c3cccc(C#N)c3)cs2)nc2ccccc2c1=O [AS188] | – | – | NOX2 IC50 (concentration giving half-maximal inhibition): Not active
CN1CCC(n2c(=S)[nH]c3ccccc3c2=O)CC1 [TG6-33-2] | 1000 | 40 | –
CN1CCN(CCCn2c(=S)[nH]c3ccccc3c2=O)CC1 [TG6-55] | 3000 | 60 | –
O=c1c2ccccc2[nH]c(=S)n1CCN1CCCCC1 [TG6-53] | 1500 | 90 | –
COc1cc2[nH]c(=S)n(C#N)c(=O)c2cc1OC [TG6-295-2] | 200 | – | –
CN(C)CCCCCn1c(=S)[nH]c2ccccc2c1=O [TG6-41] | 5000 | 50 | –
Nn1c(=S)[nH]c2cc3c(cc2c1=O)OCO3 [AS2-014b] | 600 | – | –
Nn1c(SCC(=O)Nc2nc(-c3ccc(Br)cc3)cs2)nc2ccccc2c1=O [AS-248] | 12700 | – | –
Cc1ccc(-c2csc(NC(=O)CSc3nc4ccccc4c(=O)n3CCCN(C)C)n2)cc1 [Sample T5306350] | > 10000 | 90 | –
CN(C)CCCn1c(=S)[nH]c2cc(F)c(F)cc2c1=O [TG6-64] | 1000 | 60 | –
O=c1c2ccccc2[nH]c(=S)n1CCCN1CCOCC1 [TG6-54] | 2000 | 80 | –
O=c1c2ccccc2[nH]c(=S)n1CCCN1CCOCC1 [TG6-249] | 1000 | – | –
O=c1c2cc(Cl)ccc2[nH]c(=S)n1CCCN1CCCCC1 [TG6-172] | 1100 | – | –
Nn1c(=S)[nH]c2ccccc2c1=O [AS-247] | 1800 | – | –
CN(C)CCCn1c(SCC(=O)Nc2nc(-c3cccc(F)c3)cs2)nc2ccccc2c1=O [TG6-48] | – | 95 | –
CN(C)CCCn1c(=S)[nH]c2ccc(F)cc2c1=O [TG6-248] | 600 | – | –
